Patent publication US11524938B2, “Aromatic sulfonamide derivatives” (Bayer Pharma Aktiengesellschaft, priority 2016, dated 2022)
pIC50: −log10 of the molar value.

Biological target: T1, human P2X4 (Homo sapiens, UniProt Q99571)
T1 sequence (Q99571 1-388): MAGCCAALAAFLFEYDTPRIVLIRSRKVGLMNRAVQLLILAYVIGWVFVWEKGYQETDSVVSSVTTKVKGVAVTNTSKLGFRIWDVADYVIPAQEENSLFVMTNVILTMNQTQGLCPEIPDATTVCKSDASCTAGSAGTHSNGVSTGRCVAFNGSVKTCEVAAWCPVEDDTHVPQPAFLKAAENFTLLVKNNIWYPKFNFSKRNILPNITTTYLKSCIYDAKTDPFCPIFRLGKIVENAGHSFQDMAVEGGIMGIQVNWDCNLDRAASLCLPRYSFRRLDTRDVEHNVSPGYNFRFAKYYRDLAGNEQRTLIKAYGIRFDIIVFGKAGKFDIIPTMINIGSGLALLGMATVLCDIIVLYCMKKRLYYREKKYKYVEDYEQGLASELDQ
Assay: Human P2X4 HEK Cell FLIPR Assay
Type: cell-based
Conditions: agonist Bz-ATP at EC80; for Emax: HEK293, HEK293 cells, percentage of maximal inhibition, read-out: Human P2X4 HEK Cells (FLIPR Assay) avg Efficacy [%]; for pIC50: HEK293 cells, individual values listed where some fall outside detection range
How it was run: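 HEK293 cells stably expressing human P2X4, Fluo8-AM loaded 30 min at 37° C, then compound 30 min at room temperature (0.5% DMSO, pH 7.4 buffer with 1.8 mM CaCl2). Bz-ATP at its daily-determined EC80 added; calcium fluorescence read over 120 sec; IC50 from peak RFU normalized to agonist control, triplicates.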

Emax [%]	pIC50	SMILES
74	7.12	NS(=O)(=O)c1cc(NC(=O)Cc2ccccc2Cl)ccc1-n1cnc2cnccc21 [Example 45, 2-(2-Chlorophenyl)-N-[4-(1H-imidazo[4,5-c]pyridin-1-yl)-3-sulfamoylphenyl]-acetamide]
109	7.55	CC(C)Oc1ncccc1-c1ccc(NC(=O)Cc2ccccc2Cl)cc1S(N)(=O)=O [Example 336, 2-(2-Chlorophenyl)-N-{4-[2-(propan-2-yloxy)pyridin-3-yl]-3-sulfamoylphenyl}acetamide]
104	6.97	Cc1cc(-c2ccc(NC(=O)Cc3ccccc3Cl)cc2S(N)(=O)=O)cnc1Cl [Example 298, N-[4-(6-Chloro-5-methylpyridin-3-yl)-3-sulfamoylphenyl]-2-(2-chlorophenyl)acetamide]
90	7.07	Cc1ccccc1CC(=O)Nc1ccc(-n2cc(Br)cn2)c(S(N)(=O)=O)c1 [Example 66, N-[4-(4-Bromo-1H-pyrazol-1-yl)-3-sulfamoylphenyl]-2-(2-methylphenyl)acetamide]
90	6.82	NS(=O)(=O)c1cc(NC(=O)Cc2ccccc2OC(F)F)ccc1-n1cc(F)cn1 [Example 157, 2-[2-(Difluoromethoxy)phenyl]-N-[4-(4-fluoro-1H-pyrazol-1-yl)-3-sulfamoylphenyl]-acetamide]
76	6.03	NS(=O)(=O)c1cc(NC(=O)Cc2ccccc2Cl)ccc1-n1cc(Cl)cc(Cl)c1=O [Example 3, 2-(2-Chlorophenyl)-N-[4-(3,5-dichloro-2-oxopyridin-1(2H)-yl)-3-sulfamoylphenyl]-acetamide]
98	7.74	Cn1cc(-c2ccc(NC(=O)Cc3cccc(F)c3Cl)cc2S(N)(=O)=O)cn1 [Example 334, 2-(2-Chloro-3-fluorophenyl)-N-[4-(1-methyl-1H-pyrazol-4-yl)-3-sulfamoylphenyl]-acetamide]
91	6.60	Cc1ncn(-c2ccc(NC(=O)Cc3ccccc3Cl)cc2S(N)(=O)=O)n1 [Example 5, 2-(2-Chlorophenyl)-N-[4-(3-methyl-1H-1,2,4-triazol-1-yl)-3-sulfamoylphenyl]-acetamide]
98	6.73	NS(=O)(=O)c1cc(NC(=O)Cc2ccccc2Cl)ccc1-c1nnc(C(F)(F)F)o1 [Example 391, 2-(2-Chlorophenyl)-N-{3-sulfamoyl-4-[5-(trifluoromethyl)-1,3,4-oxadiazol-2-yl]phenyl}acetamide]
83	7.57	CCCNc1ncc(-c2ccc(NC(=O)Cc3ccccc3Cl)cc2S(N)(=O)=O)cn1 [Example 314, 2-(2-Chlorophenyl)-N-{4-[2-(propylamino)pyrimidin-5-yl]-3-sulfamoylphenyl}-acetamide]
92	6.27	NS(=O)(=O)c1cc(NC(=O)Cc2ccccc2Cl)ccc1-c1cnn(C(F)F)c1C(F)(F)F [Example 492, 2-(2-Chlorophenyl)-N-{4-[1-(difluoromethyl)-5-(trifluoromethyl)-1H-pyrazol-4-yl]-3-sulfamoylphenyl}acetamide]
89	5.93	CC(C)c1ccccc1CC(=O)Nc1ccc(-n2cc(C(F)(F)F)cn2)c(S(N)(=O)=O)c1 [Example 137, 2-(2-Isopropylphenyl)-N-{3-sulfamoyl-4-[4-(trifluoromethyl)-1H-pyrazol-1-yl]phenyl}-acetamide]
84	7.05	NS(=O)(=O)c1cc(NC(=O)Cc2ccccc2F)ccc1-n1cc(C(F)F)cn1 [Example 378, N-{4-[4-(Difluoromethyl)-1H-pyrazol-1-yl]-3-sulfamoylphenyl}-2-(2-fluorophenyl)acetamide]
69	6.44	NS(=O)(=O)c1cc(NC(=O)Cc2cccc(F)c2)ccc1-n1cc(C(F)(F)F)cn1 [Example 114, 2-(3-Fluorophenyl)-N-{3-sulfamoyl-4-[4-(trifluoromethyl)-1H-pyrazol-1-yl]phenyl}-acetamide]
87	9.00	NS(=O)(=O)c1cc(NC(=O)Cc2ccccc2Cl)ccc1-c1ncc(N2CCOCC2)s1 [Example 550, 2-(2-Chlorophenyl)-N-{4-[5-(morpholin-4-yl)-1,3-thiazol-2-yl]-3-sulfamoylphenyl}acetamide]
99	7.74	NS(=O)(=O)c1cc(NC(=O)Cc2ccccc2C(F)(F)F)ccc1-c1ccc(Cl)nc1 [Example 463, N-[4-(6-Chloropyridin-3-yl)-3-sulfamoylphenyl]-2-[2-(trifluoromethyl)phenyl]acetamide]

Emax [%]	pIC50	SMILES
94	6.77	NS(=O)(=O)c1cc(NC(=O)Cc2ccccc2OC(F)F)ccc1-n1cc(Cl)cn1 [Example 91, N-[4-(4-Chloro-1H-pyrazol-1-yl)-3-sulfamoylphenyl]-2-[2-(difluoromethoxy)-phenyl]acetamide]
17	< 4.60	NS(=O)(=O)c1cc(NC(=O)Cc2cc(C(F)(F)F)ccc2Cl)c(C(F)(F)F)cc1-n1cc(C(F)(F)F)cn1 [Example 534, 2-[2-Chloro-5-(trifluoromethyl)phenyl]-N-{5-sulfamoyl-2-(trifluoromethyl)-4-[4-(trifluoromethyl)-1H-pyrazol-1-yl]phenyl}acetamide]
94	7.80	NS(=O)(=O)c1cc(NC(=O)Cc2cccc(Cl)c2Cl)ccc1-c1cnn(C(F)F)c1 [Example 229, 2-(2,3-Dichlorophenyl)-N-{4-[1-(difluoromethyl)-1H-pyrazol-4-yl]-3-sulfamoylphenyl}-acetamide]
92	7.22	NS(=O)(=O)c1cc(NC(=O)Cc2ccccc2Cl)ccc1-c1cccnc1 [Example 354, 2-(2-Chlorophenyl)-N-[4-(pyridin-3-yl)-3-sulfamoylphenyl]acetamide]
90	7.08	NS(=O)(=O)c1cc(NC(=O)Cc2ccc(C(F)F)cc2)ccc1-n1cc(C(F)(F)F)nn1 [Example 411, 2-[4-(Difluoromethyl)phenyl]-N-{3-sulfamoyl-4-[4-(trifluoromethyl)-1H-1,2,3-triazol-1-yl]phenyl}acetamide]
58	5.84	Cc1ccc(CC(=O)Nc2ccc(-c3cncc(C(F)(F)F)c3)c(S(N)(=O)=O)c2)cc1 [Example 454, 2-(4-Methylphenyl)-N-{3-sulfamoyl-4-[5-(trifluoromethyl)pyridin-3-yl]phenyl}acetamide]
71	6.85	NS(=O)(=O)c1cc(NC(=O)Cc2ccccc2OC(F)F)ccc1-n1cnc(C(F)(F)F)n1 [Example 57, 2-[2-(Difluoromethoxy)phenyl]-N-{3-sulfamoyl-4-[3-(trifluoromethyl)-1H-1,2,4-triazol-1-yl]phenyl}acetamide]
86	6.74	NS(=O)(=O)c1cc(NC(=O)Cc2ccccc2Cl)ccc1-n1cc(NC(=O)CC(F)(F)F)cn1 [Example 507, N-[1-(4-{[(2-Chlorophenyl)acetyl]amino}-2-sulfamoylphenyl)-1H-pyrazol-4-yl]-3,3,3-trifluoropropanamide]
84	7.52	Cc1ccccc1CC(=O)Nc1ccc(-n2cc(F)cn2)c(S(N)(=O)=O)c1 [Example 154, N-[4-(4-Fluoro-1H-pyrazol-1-yl)-3-sulfamoylphenyl]-2-(2-methylphenyl)acetamide]
80	7.00	NS(=O)(=O)c1cc(NC(=O)Cc2c(F)cc(F)cc2Cl)ccc1-n1cc(Cl)cn1 [Example 102, 2-(2-Chloro-4,6-difluorophenyl)-N-[4-(4-chloro-1H-pyrazol-1-yl)-3-sulfamoylphenyl]-acetamide]
87	6.30	N#Cc1ccc(Cl)c(CC(=O)Nc2ccc(-n3cc(C(F)(F)F)cn3)c(S(N)(=O)=O)c2)c1 [Example 243, 2-(2-Chloro-5-cyanophenyl)-N-{3-sulfamoyl-4-[4-(trifluoromethyl)-1H-pyrazol-1-yl]-phenyl}acetamide]
57	6.10	NS(=O)(=O)c1cc(NC(=O)Cc2cc(F)cc(F)c2)ccc1-n1cc(C(F)(F)F)cn1 [Example 115, 2-(3,5-Difluorophenyl)-N-{3-sulfamoyl-4-[4-(trifluoromethyl)-1H-pyrazol-1-yl]phenyl}-acetamide]
89	6.49	COc1cc(-c2ccc(NC(=O)Cc3ccccc3Cl)cc2S(N)(=O)=O)cnc1Cl [Example 332, N-[4-(6-Chloro-5-methoxypyridin-3-yl)-3-sulfamoylphenyl]-2-(2-chlorophenyl)-acetamide]
97	6.56	NS(=O)(=O)c1cc(NC(=O)Cc2ccc(F)c(F)c2)ccc1-c1ccc(Cl)nc1 [Example 468, N-[4-(6-Chloropyridin-3-yl)-3-sulfamoylphenyl]-2-(3,4-difluorophenyl)acetamide]
86	6.13	CC(C)(C)c1cnn(-c2ccc(NC(=O)Cc3ccccc3Cl)cc2S(N)(=O)=O)c1 [Example 394, N-[4-(4-tert-Butyl-1H-pyrazol-1-yl)-3-sulfamoylphenyl]-2-(2-chlorophenyl)acetamide]
